ChEMBL document CHEMBL4261616, “Discovery of heterocyclic replacements for the coumarin core of anti-tubercular FadD32 inhibitors” (Bioorg Med Chem Lett, 2018)
In brackets after ≈: the same amount, converted by molar mass.

System: Mycobacterium tuberculosis
Experiment: Antimycobacterial activity against Mycobacterium tuberculosis H37Rv harboring FadD32 mutant after 6 days by resazurin dye based fluorescence assay
Assay type: functional

| Structure (SMILES) | MIC90 |
| --- | --- |
| Cc1cc2nccc(-c3ccccc3)c2c(C)c1-c1ccc(CN2CCOCC2)cc1 | 15.6 µM (≈ 6.37 µg/mL) |
| CNC(=O)c1cc(-c2ccccc2Cl)c2c(C)c(-c3ccncc3)c(C)cc2n1 | 6.25 µM (≈ 2.51 µg/mL) |
